Patent US5444042A, “Method of treatment of neurodegeneration with calpain inhibitors” (Cortex Pharmaceuticals, priority 1994, dated 1995)
pKi: −log10 of the molar value. Where a SMILES comes first, the peptide text is derived from it. The star is where a group is joined. Boc = CC(C)(C)OC(=O)*; CH2Cl = ClC*

Experiments:
Calpain I = target: T1, Calpain I (Homo sapiens, UniProt P07384); experiment: Calpain I KI (Table 1B(ii)); assay type: biochemical; conditions: Table 1B(ii)
T1 sequence (P07384 1-714): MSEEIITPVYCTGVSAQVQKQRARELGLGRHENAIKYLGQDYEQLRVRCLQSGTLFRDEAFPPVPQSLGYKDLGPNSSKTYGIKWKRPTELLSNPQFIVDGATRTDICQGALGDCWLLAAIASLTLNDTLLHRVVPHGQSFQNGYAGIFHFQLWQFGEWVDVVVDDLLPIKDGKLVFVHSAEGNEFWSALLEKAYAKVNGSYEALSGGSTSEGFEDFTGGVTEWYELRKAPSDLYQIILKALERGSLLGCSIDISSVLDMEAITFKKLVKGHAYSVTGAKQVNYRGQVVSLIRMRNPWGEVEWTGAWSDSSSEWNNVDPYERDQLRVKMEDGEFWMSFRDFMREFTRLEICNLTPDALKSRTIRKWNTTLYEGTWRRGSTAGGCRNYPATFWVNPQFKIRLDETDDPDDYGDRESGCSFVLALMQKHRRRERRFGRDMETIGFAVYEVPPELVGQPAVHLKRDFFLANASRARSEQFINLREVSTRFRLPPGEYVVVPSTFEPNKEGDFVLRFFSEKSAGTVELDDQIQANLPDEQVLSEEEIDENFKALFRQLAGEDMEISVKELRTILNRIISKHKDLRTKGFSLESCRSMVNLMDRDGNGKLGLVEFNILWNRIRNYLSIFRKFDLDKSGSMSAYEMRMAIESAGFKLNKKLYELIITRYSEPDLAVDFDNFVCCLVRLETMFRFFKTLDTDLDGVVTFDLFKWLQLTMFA
T1 sequence (P04632 1-268 partner): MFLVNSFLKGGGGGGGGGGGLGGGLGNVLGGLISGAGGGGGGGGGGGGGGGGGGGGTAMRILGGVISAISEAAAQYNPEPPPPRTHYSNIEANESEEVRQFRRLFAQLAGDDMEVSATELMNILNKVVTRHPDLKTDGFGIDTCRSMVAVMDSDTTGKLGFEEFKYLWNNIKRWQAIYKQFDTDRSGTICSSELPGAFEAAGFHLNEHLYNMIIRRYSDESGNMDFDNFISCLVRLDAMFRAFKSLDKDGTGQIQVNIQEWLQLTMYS
Description: We tested the ability of an additional group of Peptide Keto-Compounds to inhibit several proteases in order to evaluate their specificity for Calpain.

Calpain II = experiment: Kapp/[I] progress curve method, Calpain II (Table 1C); assay type: biochemical; set-up: unit not given here; conditions: Rabbit Calpain II, Suc-leu-tyr-amidomethylcoumarin
Method in brief: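 Irreversible inactivation of calpains I and II followed with Suc-Leu-Tyr-AMC substrate; papain assayed with benzoyl-Arg-4-nitroanilide. Kapp derived by the Tian–Tsou progress-curve method from product formed at infinite time, known substrate and inhibitor concentrations, Vmax and Km; values reported as Kapp/[I].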

Papain = target: T2, Papain (Carica papaya, UniProt P00784); experiment: Kapp/[I] progress curve method, Papain (Table 1C); assay type: biochemical; conditions: benzoyl-arg-4-nitroanilide
T2 sequence (P00784 134-345): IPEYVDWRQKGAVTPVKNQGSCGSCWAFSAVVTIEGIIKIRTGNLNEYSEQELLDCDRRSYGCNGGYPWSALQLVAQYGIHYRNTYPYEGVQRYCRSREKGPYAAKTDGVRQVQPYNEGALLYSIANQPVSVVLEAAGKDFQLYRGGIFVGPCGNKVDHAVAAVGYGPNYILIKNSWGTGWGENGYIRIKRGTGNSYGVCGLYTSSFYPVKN
Method: (§1) The Halo-Ketone Peptides, like the substituted isocoumarins, are irreversible inhibitors of Calpain. We determined the Kapp /[I] values for various members of this class of compounds against Calpains I and II. For comparison, we also determined these values against the additional thiol proteases Papain and Cathepsin B for at least one Halo-Ketone Peptide.
(§2) We assayed Calpain I and II using Suc-leu-tyr-amidomethylcoumarin. Papain was assayed using benzoyl-arg-4-nitroanilide, and Cathepsin B (bovine) was assayed using CBZ-lys-4-nitrophenyl ester. We followed the progress curve method of Tian and Tsou, Biochemistry, 21:1028-1032 (1982), the disclosure of which is hereby incorporated by reference, to derive kinetic data. Briefly, this method makes use of the equation: [formula] where [P.infin. ] represents the concentration of product formed at a time approaching infinity, A is the Kapp in the presence of substrate (S), K is the Michaelis constant and [Y] is the concentration of the inhibitor. Since [S] and [Y] are known and V and K can be determined, Kapp can be readily determined.

Cathepsin B = Cathepsin B (Bos taurus, UniProt P07688); experiment: Kapp/[I] progress curve method, Cathepsin B (Table 1C); assay type: biochemical, bovine; conditions: CBZ-lys-4-nitrophenyl ester
Method: as §1, §2

hippocampal slices = experiment: Hippocampal slice EPSP recovery from severe hypoxia (FIG. 5); assay type: cell-based, rat; conditions: one hour incubation
Method: These studies were performed in a manner similar to that of Example 7B, except using a hypoxic environment in place of the anoxia of Example 7B. […] The control slices experienced little or no recovery.

With CCCC(NC(=O)[C@H](CC(C)C)NC(=O)OCc1ccccc1)C(=O)C(=O)OCC (mixture of isomers) [Z-Leu-Nva-COOEt, Z-Leu-DL-Nva-COOEt] the pKi (Calpain I) was 5.85.

With CC(C)CC(NC(=O)CNC(=O)OC(C)(C)C)C(=O)NC(Cc1ccccc1)C(=O)CCl (stereo not drawn) [Boc-Gly-Leu-Phe-CH2 Cl] (Boc-Gly-Leu-Phe-CH2Cl; configuration not given here) the “Kapp/[I] CII” value (Calpain II) was 902000, the “Kapp/[I] P” value (Papain) was 540000 and the “Kapp/[I] CB” value (Cathepsin B) was 290000.

CCOC(=O)C(=O)C(Cc1ccccc1)NC(=O)C(CC(C)C)NC(=O)OCc1ccccc1 (stereo not drawn) [Z-Leu-Phe-COOEt] was tested, and the “percent recovery of EPSP from severe hypoxia (FIG. 5)” value (hippocampal slices) was “partial recovery”.
